These results are taken from PubChem BioAssay (NCI).

Among the test systems are MALME-3M melanoma; UACC-257 melanoma; HL-60(TB) leukemia; OVCAR-4 ovarian; HOP-62 NSCLC; T-47D breast; MDA-MB-231 breast; MDA-MB-435; OVCAR-3 ovarian; SK-MEL-28 melanoma; SF-539 CNS; HOP-92 NSCLC; SNB-19 CNS; KM12 colon; A549 NSCLC; ACHN renal; CCRF-CEM leukemia; SW-620 colon; TK-10 renal; IGROV1 ovarian.
Test in all cases: growth of human tumour cells (NCI), 48 h

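1) Cells in 96-well plates. 2) Compound, 48 h, 5 concentrations. 3) Linear interpolation between surrounding doses. 4) Unreached endpoint = highest concentration. TGI is the concentration that stops growth completely.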

On to `Cc1cc(C)c(S(=O)(=O)N(CCCCCCN)OCCCN)c(C)c1`, for which the TGI with MALME-3M melanoma worked out at 24 µM; in the experiment with UACC-257 melanoma, 29.7 µM; in the experiment with HL-60(TB) leukemia, 33.3 µM; in the experiment with OVCAR-4 ovarian, 46.2 µM; in the experiment with HOP-62 NSCLC it was 46 µM; in the experiment with T-47D breast it was 37.4 µM. The TGI is 24.4 µM in the experiment on MDA-MB-231 breast; greater than 100 µM in the experiment on MDA-MB-435; 46 µM in the experiment with OVCAR-3 ovarian; 36.1 µM in the experiment on SK-MEL-28 melanoma; 34.2 µM in the experiment on SF-539 CNS; 29.9 µM with HOP-92 NSCLC. Also, the TGI is 38.2 µM with SNB-19 CNS; 32.1 µM with KM12 colon; greater than 100 µM in the experiment with A549 NSCLC; 30.9 µM in the experiment on ACHN renal; 36.9 µM in the experiment with CCRF-CEM leukemia; 40.4 µM in the experiment with SW-620 colon. Moreover, the TGI was 29.4 µM with TK-10 renal and 29.6 µM in the experiment on IGROV1 ovarian.

For `CN(C)/N=C1\C=C2CC[C@H](O[Si](C)(C)C(C)(C)C)[C@@]2(C)CC1`, the TGI was 30.8 µM in the experiment on MALME-3M melanoma; 30.6 µM in the experiment on UACC-257 melanoma; 26.5 µM in the experiment with HL-60(TB) leukemia; 28.6 µM with OVCAR-4 ovarian; 32.6 µM with HOP-62 NSCLC; 29.6 µM in the experiment with T-47D breast. Also, the TGI stood at 30.3 µM in the experiment with MDA-MB-231 breast; 32 µM in the experiment on MDA-MB-435; 27.9 µM with OVCAR-3 ovarian; 29.5 µM in the experiment on SK-MEL-28 melanoma; 42.4 µM in the experiment with SF-539 CNS; 28.5 µM in the experiment with HOP-92 NSCLC. Moreover, the TGI in the experiment with SNB-19 CNS stood at 31.9 µM; in the experiment with KM12 colon it was 30.9 µM; with A549 NSCLC it was 34.8 µM; in the experiment on ACHN renal it was 30.1 µM; in the experiment on CCRF-CEM leukemia, 44 µM; in the experiment with SW-620 colon it was 31.9 µM. The figures for the TGI with TK-10 renal and with IGROV1 ovarian were 34.6 µM and 41 µM, respectively.

For the compound `COc1ccc(C2C3=C(COC3=O)OC(C)(C)Oc3cc4c(cc32)OCO4)cc1` (stereo not given), the TGI is greater than 100 µM in the experiment with MALME-3M melanoma; greater than 100 µM with UACC-257 melanoma; greater than 61.3 µM in the experiment with HL-60(TB) leukemia; greater than 100 µM in the experiment on OVCAR-4 ovarian; greater than 100 µM with HOP-62 NSCLC; greater than 87.4 µM in the experiment with T-47D breast. The TGI with MDA-MB-231 breast is 97.9 µM; with MDA-MB-435, 14.9 µM; in the experiment with OVCAR-3 ovarian it was greater than 100 µM; in the experiment with SK-MEL-28 melanoma, greater than 100 µM; in the experiment with SF-539 CNS, greater than 72.7 µM; in the experiment on HOP-92 NSCLC, greater than 65.8 µM. The TGI in the experiment on SNB-19 CNS is greater than 100 µM; in the experiment with KM12 colon, greater than 81 µM; with A549 NSCLC it was greater than 100 µM; with ACHN renal, greater than 100 µM; with CCRF-CEM leukemia it was greater than 100 µM; in the experiment on SW-620 colon, greater than 100 µM. The TGI in the experiment on TK-10 renal was 97 µM; with IGROV1 ovarian it was greater than 100 µM.

Consider `CC(C)C(C/C=C1/CC(CO)(COC(=O)C(C)(C)C)OC1=O)C(C)C` (stereo not given), for which the TGI in the experiment on MALME-3M melanoma was 19.2 µM; with UACC-257 melanoma, 32.7 µM; in the experiment with HL-60(TB) leukemia, 16.2 µM; in the experiment with OVCAR-4 ovarian, 31.5 µM; in the experiment with HOP-62 NSCLC it was 18.8 µM; in the experiment with T-47D breast, 23.3 µM. The TGI came out at 17.1 µM in the experiment on MDA-MB-231 breast; 21.5 µM in the experiment with MDA-MB-435; 29.9 µM in the experiment with OVCAR-3 ovarian; 30.6 µM in the experiment on SK-MEL-28 melanoma; 15.4 µM in the experiment with SF-539 CNS; 25.3 µM in the experiment on HOP-92 NSCLC. The TGI turned out to be 26.1 µM in the experiment on SNB-19 CNS; 27.3 µM with KM12 colon; 15.3 µM with A549 NSCLC; 21 µM in the experiment on ACHN renal; 36.5 µM in the experiment with CCRF-CEM leukemia; 19 µM with SW-620 colon. Moreover, the TGI with TK-10 renal was 18 µM; in the experiment on IGROV1 ovarian, 31.5 µM.

`COc1cc(/C=C/C=C2\CCC/C(=C\C=C\c3ccc(O)c(OC)c3)C2=O)ccc1O`: the TGI is 44.8 µM in the experiment with MALME-3M melanoma; 31.4 µM with UACC-257 melanoma; greater than 100 µM in the experiment with HL-60(TB) leukemia; greater than 100 µM in the experiment on OVCAR-4 ovarian; 52.7 µM in the experiment with HOP-62 NSCLC; 36.7 µM in the experiment on T-47D breast. The TGI was greater than 100 µM in the experiment with MDA-MB-231 breast; greater than 100 µM in the experiment with MDA-MB-435; greater than 100 µM with OVCAR-3 ovarian; 30.2 µM in the experiment with SK-MEL-28 melanoma; 45.9 µM with SF-539 CNS; 44.9 µM in the experiment with HOP-92 NSCLC. Moreover, the TGI is greater than 100 µM with SNB-19 CNS; 97.4 µM in the experiment on KM12 colon; 26.8 µM in the experiment with A549 NSCLC; 39 µM with ACHN renal; 8.99 µM with CCRF-CEM leukemia; 51.1 µM in the experiment with SW-620 colon. For the same compound, the TGI was 52 µM in the experiment with TK-10 renal and 74.7 µM with IGROV1 ovarian.

In the case of `Cc1ccc(-c2cn3c(nc4ccccc43)c(-c3ccccc3)n2)cc1`, the TGI in the experiment on MALME-3M melanoma is greater than 100 µM; with UACC-257 melanoma, greater than 100 µM; in the experiment with HL-60(TB) leukemia, greater than 100 µM; in the experiment on OVCAR-4 ovarian, greater than 100 µM; with HOP-62 NSCLC, 43.7 µM; in the experiment on T-47D breast, greater than 91.7 µM. In addition, the TGI is greater than 100 µM in the experiment with MDA-MB-231 breast; greater than 100 µM in the experiment on MDA-MB-435; greater than 100 µM in the experiment with OVCAR-3 ovarian; greater than 100 µM in the experiment with SK-MEL-28 melanoma; greater than 100 µM in the experiment with SF-539 CNS; 56.4 µM in the experiment on HOP-92 NSCLC. Besides, the TGI is 48.7 µM with SNB-19 CNS; greater than 100 µM with KM12 colon; greater than 100 µM with A549 NSCLC; greater than 100 µM with ACHN renal; greater than 100 µM in the experiment on CCRF-CEM leukemia; greater than 100 µM in the experiment with SW-620 colon. In addition, the TGI was greater than 76.5 µM in the experiment on TK-10 renal and greater than 100 µM in the experiment on IGROV1 ovarian.

Consider `CCOC(=O)CCC(NC(=O)c1ccc(Nc2cnc3cc(C(F)(F)F)ccc3n2)cc1)C(=O)OCC` (stereo not given), for which the TGI in the experiment on MALME-3M melanoma was greater than 100 µM; with UACC-257 melanoma, greater than 100 µM; in the experiment with HL-60(TB) leukemia, greater than 100 µM; in the experiment on OVCAR-4 ovarian, greater than 100 µM; with HOP-62 NSCLC it was 34.7 µM; in the experiment with T-47D breast, greater than 100 µM. For the same compound, the TGI is greater than 100 µM with MDA-MB-231 breast; greater than 100 µM in the experiment on MDA-MB-435; greater than 100 µM with OVCAR-3 ovarian; greater than 100 µM with SK-MEL-28 melanoma; greater than 100 µM with SF-539 CNS; 49.6 µM in the experiment with HOP-92 NSCLC. Moreover, the TGI in the experiment with SNB-19 CNS was greater than 47.8 µM; in the experiment on KM12 colon, greater than 100 µM; in the experiment on A549 NSCLC, greater than 100 µM; in the experiment on ACHN renal, greater than 100 µM; in the experiment with CCRF-CEM leukemia, greater than 100 µM; in the experiment with SW-620 colon, greater than 100 µM. In addition, the TGI with TK-10 renal and in the experiment with IGROV1 ovarian was greater than 100 µM throughout.
